Assay results as given in ChEMBL document CHEMBL3044741, “Synthesis of novel biologically active methylene derivatives of sydnones” (Med Chem Res, 2013).
≈ marks a conversion by molar mass, not a printed value.

Assays:
Candida albicans [1] = assay: Antifungal activity against Candida albicans MTCC 227; type: functional
Aspergillus clavatus [2] = assay: Antifungal activity against Aspergillus clavatus MTCC 1323 at 250 ug/ml after 74 hrs by Kirby-Bauer method; type: functional; details: MTCC 1323, 74 h, read-out: IZ
Human alphaherpesvirus 3 [3] = assay: Antiviral activity against thymidine kinase-deficient Varicella-zoster virus infected in HEL cells assessed as reduction in plaque formation; type: functional, organism-based; details: Human alphaherpesvirus 3, HEL
Cytomegalovirus [4] = assay: Antiviral activity against Cytomegalovirus AD-169 infected in HEL cells assessed as reduction in plaque formation; type: functional, organism-based; details: Human betaherpesvirus 5, AD-169, HEL
[5] = Selectivity index, ratio of CC50 for human MT4 cells to IC50 for HIV2 ROD; type: functional
[6] = test system: Human immunodeficiency virus 2; assay: Antiviral activity against HIV2 ROD infected in MT4 cells assessed as inhibition of virus-induced cytopathogenicity by MTT assay; type: functional, organism-based; details: Human immunodeficiency virus 2, ISOLATE ROD
Staphylococcus aureus [7] = assay: Antibacterial activity against Staphylococcus aureus MTCC 96 at 250 ug/ml after 24 hrs by Kirby-Bauer method; type: functional; details: MTCC 96, 24 h, read-out: IZ
Streptococcus pyogenes [8] = assay: Antibacterial activity against Streptococcus pyogenes MTCC 442 at 250 ug/ml after 24 hrs by Kirby-Bauer method; type: functional; details: MTCC 442, 24 h, read-out: IZ
Candida albicans [9] = assay: Antifungal activity against Candida albicans MTCC 227 at 250 ug/ml after 74 hrs by Kirby-Bauer method; type: functional; details: MTCC 227, 74 h, read-out: IZ
Escherichia coli [10] = assay: Antibacterial activity against Escherichia coli MTCC 443 after 24 hrs by broth dilution method; type: functional; details: MTCC 443, 24 h
Staphylococcus aureus [11] = assay: Antibacterial activity against Staphylococcus aureus MTCC 96 after 24 hrs by broth dilution method; type: functional; details: MTCC 96, 24 h
Pseudomonas aeruginosa [12] = assay: Antibacterial activity against Pseudomonas aeruginosa MTCC 424 at 250 ug/ml after 24 hrs by Kirby-Bauer method; type: functional; details: MTCC 424, 24 h, read-out: IZ
Streptococcus pyogenes [13] = assay: Antibacterial activity against Streptococcus pyogenes MTCC 442 after 24 hrs by broth dilution method; type: functional; details: MTCC 442, 24 h
Aspergillus niger [14] = assay: Antifungal activity against Aspergillus niger MTCC 282 at 250 ug/ml after 74 hrs by Kirby-Bauer method; type: functional; details: MTCC 282, 74 h, read-out: IZ
Human alphaherpesvirus 3 [15] = assay: Antiviral activity against Varicella-zoster virus Oka expressing thymidine kinase infected in HEL cells assessed as reduction in plaque formation; type: functional, organism-based; details: Human alphaherpesvirus 3, strain Oka vaccine
Escherichia coli [16] = assay: Antibacterial activity against Escherichia coli MTCC 443 at 250 ug/ml after 24 hrs by Kirby-Bauer method; type: functional; details: MTCC 443, 24 h, read-out: IZ
[17] = Cytotoxicity against human MT4 cells by MTT assay; type: cell-based
[18] = test system: Human immunodeficiency virus 1; assay: Antiviral activity against HIV1 3B infected in MT4 cells assessed as inhibition of virus-induced cytopathogenicity by MTT assay; type: functional, organism-based; details: Human immunodeficiency virus 1, 3B
[19] = Cytotoxicity against human HEL cells; type: cell-based
Pseudomonas aeruginosa [20] = assay: Antibacterial activity against Pseudomonas aeruginosa MTCC 424 after 24 hrs by broth dilution method; type: functional; details: MTCC 424, 24 h
Cytomegalovirus [21] = assay: Antiviral activity against Cytomegalovirus Davis in HEL cells assessed as reduction in plaque formation; type: functional, organism-based; details: Human betaherpesvirus 5, Davis
[22] = Selectivity index, ratio of CC50 for human MT4 cells to IC50 for HIV1 3B; type: functional
[23] = Cytotoxicity against human HEL cells assessed as alteration in cell morphology; type: cell-based
Aspergillus clavatus [24] = assay: Antifungal activity against Aspergillus clavatus MTCC 1323; type: functional
Aspergillus niger [25] = assay: Antifungal activity against Aspergillus niger MTCC 282; type: functional

SMILES | MIC (Candida albicans [1]) | zone of inhibition at 250 µg/mL (Aspergillus clavatus [2]) | EC50 (Human alphaherpesvirus 3 [3]) | EC50 (Cytomegalovirus [4]) | Ratio CC50/IC50 [5] | IC50 [6] | zone of inhibition at 250 µg/mL (Staphylococcus aureus [7]) | zone of inhibition at 250 µg/mL (Streptococcus pyogenes [8]) | zone of inhibition at 250 µg/mL (Candida albicans [9]) | MIC (Escherichia coli [10]) | MIC (Staphylococcus aureus [11]) | zone of inhibition at 250 µg/mL (Pseudomonas aeruginosa [12]) | MIC (Streptococcus pyogenes [13]) | zone of inhibition at 250 µg/mL (Aspergillus niger [14]) | EC50 (Human alphaherpesvirus 3 [15]) | zone of inhibition at 250 µg/mL (Escherichia coli [16]) | CC50 [17] | IC50 [18] | CC50 [19] | MIC (Pseudomonas aeruginosa [20]) | also measured
Cc1ccc(-[n+]2noc([O-])c2CN2CCN(C)C(c3ccccc3)C2)cc1 (stereo not given) | 200 mg/L (≈ 549 µM) | 21 mm | > 20 mg/L | > 20 mg/L | <1 | > 14.4 mg/L | 19 mm | 21 mm | 18 mm | 500 mg/L (≈ 1370 µM) | 250 mg/L (≈ 686 µM) | 21 mm | 100 mg/L (≈ 274 µM) | 18 mm | > 20 mg/L | 16 mm | 14.4 mg/L (≈ 39.5 µM) | > 14.4 mg/L | 23.7 mg/L (≈ 65 µM) | 100 mg/L (≈ 274 µM) | EC50 (Cytomegalovirus [21]): > 20 mg/L; Ratio CC50/IC50 [22]: <1; MCC [23]: 100 µg/mL; MIC (Aspergillus clavatus [24]): 200 mg/L (≈ 549 µM); MIC (Aspergillus niger [25]): 1000 mg/L (≈ 2740 µM)
[O-]c1on[n+](-c2ccc(Cc3ccc(-[n+]4noc([O-])c4CN4CCN(c5cccc(Cl)c5Cl)CC4)cc3)cc2)c1CN1CCN(c2cccc(Cl)c2Cl)CC1 | 1000 mg/L (≈ 1220 µM) | 23 mm | > 4 mg/L | 12.6 mg/L (≈ 15.3 µM) | <1 | > 20.8 mg/L | 21 mm | 18 mm | 21 mm | 125 mg/L (≈ 152 µM) | 125 mg/L (≈ 152 µM) | 17 mm | 200 mg/L (≈ 243 µM) | 23 mm | > 4 mg/L | 21 mm | 20.8 mg/L (≈ 25.3 µM) | > 20.8 mg/L | 28.7 mg/L (≈ 34.9 µM) | 250 mg/L (≈ 304 µM) | EC50 (Cytomegalovirus [21]): > 20 mg/L; Ratio CC50/IC50 [22]: <1; MCC [23]: 100 µg/mL; MIC (Aspergillus clavatus [24]): 1000 mg/L (≈ 1220 µM); MIC (Aspergillus niger [25]): 250 mg/L (≈ 304 µM)
Cc1ccc(-[n+]2noc([O-])c2CN2CCOCC2)cc1 | 500 mg/L (≈ 1820 µM) | 21 mm | > 20 mg/L | > 20 mg/L | <1 | > 16.6 mg/L | 21 mm | 19 mm | 23 mm | 200 mg/L (≈ 726 µM) | 100 mg/L (≈ 363 µM) | 18 mm | 250 mg/L (≈ 908 µM) | 18 mm | > 20 mg/L | 19 mm | 16.6 mg/L (≈ 60.2 µM) | > 16.6 mg/L | 38.4 mg/L (≈ 139 µM) | 250 mg/L (≈ 908 µM) | EC50 (Cytomegalovirus [21]): > 20 mg/L; Ratio CC50/IC50 [22]: <1; MCC [23]: 100 µg/mL; MIC (Aspergillus clavatus [24]): 500 mg/L (≈ 1820 µM); MIC (Aspergillus niger [25]): 1000 mg/L (≈ 3630 µM)
